Experimental findings from patent US12227500B2, “Substituted pyrrolo[2,3-b]pyridines for suppressing toxic endoplasmic reticulum stress” (THE TRUSTEES OF COLUMBIA UNIVERSITY IN THE CITY OF NEW YORK, priority 2018, dated 2025) are described below.

Holding throughout (assay): Radiolabeled ATP kinase assay, panel of 371 kinases (Table S6)
What all share (format): biochemical

In assay [1] the target is T1, panel of 371 human kinases (Homo sapiens, UniProt Q15569).
T1 construct: purchased Reaction Biology Corp
As to conditions: TESK1; 0.1 μM; 10 μM ATP; read-out: % Enzyme Activity (relative to DMSO controls). From the text:
(§1) ; FIG. 38C). […]. Further targeted analyses, such as genetic knock-down or knock-out, may be warranted to parse the role of these additional kinases in our model of neurodegeneration.

Assay [2] concerns the target T2, panel of 371 human kinases (Homo sapiens, UniProt Q9Y3S1).
T2 construct: purchased Reaction Biology Corp
As to conditions: WNK2; 0.1 μM; 10 μM ATP; read-out: % Enzyme Activity (relative to DMSO controls).
Source text: as §1

Assay [3] deals with T3, panel of 371 human kinases (Homo sapiens, UniProt Q06418).
T3 construct: purchased Reaction Biology Corp
The settings on record: TYRO3/SKY; 0.1 μM; 10 μM ATP; read-out: % Enzyme Activity (relative to DMSO controls).
Source text: as §1

Assay [4] deals with T4, panel of 371 human kinases (Homo sapiens, UniProt Q9NRH2).
T4 construct: purchased Reaction Biology Corp
T4 sequence (Q9NRH2 whole entry): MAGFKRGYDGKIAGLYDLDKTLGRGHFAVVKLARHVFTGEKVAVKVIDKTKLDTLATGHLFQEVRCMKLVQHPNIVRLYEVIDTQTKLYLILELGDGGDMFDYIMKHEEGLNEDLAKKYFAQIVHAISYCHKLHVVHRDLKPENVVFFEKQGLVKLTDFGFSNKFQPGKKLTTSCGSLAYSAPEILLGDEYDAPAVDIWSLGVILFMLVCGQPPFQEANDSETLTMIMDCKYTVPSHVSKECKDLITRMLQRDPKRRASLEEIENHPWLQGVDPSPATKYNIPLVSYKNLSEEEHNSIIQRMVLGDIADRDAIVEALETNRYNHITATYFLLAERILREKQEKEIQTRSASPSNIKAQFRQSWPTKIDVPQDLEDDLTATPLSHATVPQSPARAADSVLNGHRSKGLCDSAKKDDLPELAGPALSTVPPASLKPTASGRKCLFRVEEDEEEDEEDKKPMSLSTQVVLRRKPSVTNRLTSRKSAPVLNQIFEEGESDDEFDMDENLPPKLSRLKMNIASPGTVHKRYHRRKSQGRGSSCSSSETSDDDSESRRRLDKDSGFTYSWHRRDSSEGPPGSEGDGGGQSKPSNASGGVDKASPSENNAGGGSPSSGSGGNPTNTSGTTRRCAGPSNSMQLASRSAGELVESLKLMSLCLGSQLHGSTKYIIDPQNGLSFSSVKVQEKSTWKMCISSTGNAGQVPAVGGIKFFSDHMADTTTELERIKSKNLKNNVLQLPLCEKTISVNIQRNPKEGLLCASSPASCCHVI
The settings on record: SNRK; 0.1 μM; 10 μM ATP; read-out: % Enzyme Activity (relative to DMSO controls).
Source text: as §1

The target of assay [5] is T5, panel of 371 human kinases (Homo sapiens, UniProt P51956).
T5 construct: purchased Reaction Biology Corp
T5 sequence (P51956 whole entry): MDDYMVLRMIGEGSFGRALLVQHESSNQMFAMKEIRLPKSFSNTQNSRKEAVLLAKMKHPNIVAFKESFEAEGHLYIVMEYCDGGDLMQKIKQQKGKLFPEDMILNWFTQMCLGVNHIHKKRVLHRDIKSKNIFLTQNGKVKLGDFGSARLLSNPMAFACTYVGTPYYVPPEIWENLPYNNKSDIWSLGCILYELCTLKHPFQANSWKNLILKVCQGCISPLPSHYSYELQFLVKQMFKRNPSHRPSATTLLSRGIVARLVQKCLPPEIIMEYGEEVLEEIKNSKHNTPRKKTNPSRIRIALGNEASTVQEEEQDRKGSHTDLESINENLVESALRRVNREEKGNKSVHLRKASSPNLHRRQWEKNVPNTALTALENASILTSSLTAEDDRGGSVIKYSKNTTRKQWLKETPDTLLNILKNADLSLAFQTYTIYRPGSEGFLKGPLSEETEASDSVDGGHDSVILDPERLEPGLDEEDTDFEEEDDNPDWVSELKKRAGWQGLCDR
As to conditions: NEK3; 0.1 μM; 10 μM ATP; read-out: % Enzyme Activity (relative to DMSO controls).
Source text: as §1

For assay [6], the target named is T6, panel of 371 human kinases (Homo sapiens, UniProt P51955).
T6 construct: purchased Reaction Biology Corp
T6 sequence (P51955 whole entry): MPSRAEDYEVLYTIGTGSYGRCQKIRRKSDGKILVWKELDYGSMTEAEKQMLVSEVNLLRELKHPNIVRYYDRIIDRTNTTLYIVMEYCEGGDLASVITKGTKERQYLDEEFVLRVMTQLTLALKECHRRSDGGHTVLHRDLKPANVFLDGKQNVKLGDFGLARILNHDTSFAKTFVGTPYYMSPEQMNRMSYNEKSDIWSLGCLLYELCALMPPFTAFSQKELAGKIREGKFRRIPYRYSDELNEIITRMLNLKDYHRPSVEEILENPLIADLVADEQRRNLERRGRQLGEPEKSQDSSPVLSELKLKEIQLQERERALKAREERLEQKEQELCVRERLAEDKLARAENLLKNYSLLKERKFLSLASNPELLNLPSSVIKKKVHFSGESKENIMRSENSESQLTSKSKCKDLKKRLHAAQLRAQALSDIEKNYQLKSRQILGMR
The settings on record: NEK2; 0.1 μM; 10 μM ATP; read-out: % Enzyme Activity (relative to DMSO controls).
Source text: as §1

Assay [7] concerns the target T7, panel of 371 human kinases (Homo sapiens, UniProt Q9H2X6).
T7 construct: purchased Reaction Biology Corp
As to conditions: HIPK2; 0.1 μM; 10 μM ATP; read-out: % Enzyme Activity (relative to DMSO controls).
Source text: as §1

Assay [8] concerns the target T8, panel of 371 human kinases (Homo sapiens, UniProt Q9UHD2).
T8 construct: purchased Reaction Biology Corp
As to conditions: TBK1; 0.1 μM; 10 μM ATP; read-out: % Enzyme Activity (relative to DMSO controls).
Source text: as §1

The target in assay [9] is T9, panel of 371 human kinases (Homo sapiens, UniProt Q9Y5S2).
T9 construct: purchased Reaction Biology Corp
The settings on record: MRCKb/CDC42BPB; 0.1 μM; 10 μM ATP; read-out: % Enzyme Activity (relative to DMSO controls).
Source text: as §1

In assay [10] the target is T10, panel of 371 human kinases (Homo sapiens, UniProt Q9UF33).
T10 construct: purchased Reaction Biology Corp
As to conditions: EPHA6; 0.1 μM; 10 μM ATP; read-out: % Enzyme Activity (relative to DMSO controls).
Source text: as §1

The target in assay [11] is T11, panel of 371 human kinases (Homo sapiens, UniProt P36507).
T11 construct: purchased Reaction Biology Corp
T11 sequence (P36507 whole entry): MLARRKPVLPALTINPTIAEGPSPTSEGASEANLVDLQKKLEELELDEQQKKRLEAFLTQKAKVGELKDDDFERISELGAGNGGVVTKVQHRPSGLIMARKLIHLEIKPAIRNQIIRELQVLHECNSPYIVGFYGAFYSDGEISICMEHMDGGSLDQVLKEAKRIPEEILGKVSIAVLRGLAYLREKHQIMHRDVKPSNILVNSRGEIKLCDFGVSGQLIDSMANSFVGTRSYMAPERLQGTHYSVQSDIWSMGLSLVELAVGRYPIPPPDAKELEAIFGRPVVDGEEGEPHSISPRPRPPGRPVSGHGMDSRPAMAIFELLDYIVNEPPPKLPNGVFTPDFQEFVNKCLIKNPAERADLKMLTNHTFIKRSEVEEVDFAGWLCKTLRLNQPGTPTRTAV
As to conditions: MEK2; 0.1 μM; 10 μM ATP; read-out: % Enzyme Activity (relative to DMSO controls).
Source text: as §1

Assay [12] has as its target T12, panel of 371 human kinases (Homo sapiens, UniProt P10721).
T12 construct: purchased Reaction Biology Corp
The settings on record: c-Kit; 0.1 μM; 10 μM ATP; read-out: % Enzyme Activity (relative to DMSO controls).
Source text: as §1

The target of assay [13] is T13, panel of 371 human kinases (Homo sapiens, UniProt Q16566).
T13 construct: purchased Reaction Biology Corp
T13 sequence (Q16566 whole entry): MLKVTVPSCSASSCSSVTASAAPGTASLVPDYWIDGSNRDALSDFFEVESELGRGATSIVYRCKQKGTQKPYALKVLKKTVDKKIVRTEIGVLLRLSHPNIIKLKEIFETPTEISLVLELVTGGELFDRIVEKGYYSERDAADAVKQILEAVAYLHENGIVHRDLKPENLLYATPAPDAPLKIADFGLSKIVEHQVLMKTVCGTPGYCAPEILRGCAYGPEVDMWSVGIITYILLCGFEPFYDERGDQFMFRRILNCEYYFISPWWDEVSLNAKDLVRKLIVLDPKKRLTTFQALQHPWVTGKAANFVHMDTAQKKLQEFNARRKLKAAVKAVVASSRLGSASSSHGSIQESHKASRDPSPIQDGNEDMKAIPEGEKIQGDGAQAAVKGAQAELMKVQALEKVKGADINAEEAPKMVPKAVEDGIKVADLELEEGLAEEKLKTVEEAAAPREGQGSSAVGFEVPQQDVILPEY
As to conditions: CAMK4; 0.1 μM; 10 μM ATP; read-out: % Enzyme Activity (relative to DMSO controls).
Source text: as §1

Assay [14] concerns the target T14, panel of 371 human kinases (Homo sapiens, UniProt Q8NE63).
T14 construct: purchased Reaction Biology Corp
As to conditions: HIPK4; 0.1 μM; 10 μM ATP; read-out: % Enzyme Activity (relative to DMSO controls).
Source text: as §1

Assay [15] deals with T15, panel of 371 human kinases (Homo sapiens, UniProt P07947).
T15 construct: purchased Reaction Biology Corp
As to conditions: YES/YES1; 0.1 μM; 10 μM ATP; read-out: % Enzyme Activity (relative to DMSO controls).
Source text: as §1

The target of assay [16] is T16, panel of 371 human kinases (Homo sapiens, UniProt Q16513).
T16 construct: purchased Reaction Biology Corp
The settings on record: PKN2/PRK2; 0.1 μM; 10 μM ATP; read-out: % Enzyme Activity (relative to DMSO controls).
Source text: as §1

In assay [17] the target is T17, panel of 371 human kinases (Homo sapiens, UniProt Q8N568).
T17 construct: purchased Reaction Biology Corp
As to conditions: DCAMKL2; 0.1 μM; 10 μM ATP; read-out: % Enzyme Activity (relative to DMSO controls).
Source text: as §1

In assay [18] the target is T18, panel of 371 human kinases (Homo sapiens, UniProt Q86UX6).
T18 construct: purchased Reaction Biology Corp
As to conditions: STK32C/YANK3; 0.1 μM; 10 μM ATP; read-out: % Enzyme Activity (relative to DMSO controls).
Source text: as §1

The target of assay [19] is T19, panel of 371 human kinases (Homo sapiens, UniProt Q9P289).
T19 construct: purchased Reaction Biology Corp
T19 sequence (Q9P289 whole entry): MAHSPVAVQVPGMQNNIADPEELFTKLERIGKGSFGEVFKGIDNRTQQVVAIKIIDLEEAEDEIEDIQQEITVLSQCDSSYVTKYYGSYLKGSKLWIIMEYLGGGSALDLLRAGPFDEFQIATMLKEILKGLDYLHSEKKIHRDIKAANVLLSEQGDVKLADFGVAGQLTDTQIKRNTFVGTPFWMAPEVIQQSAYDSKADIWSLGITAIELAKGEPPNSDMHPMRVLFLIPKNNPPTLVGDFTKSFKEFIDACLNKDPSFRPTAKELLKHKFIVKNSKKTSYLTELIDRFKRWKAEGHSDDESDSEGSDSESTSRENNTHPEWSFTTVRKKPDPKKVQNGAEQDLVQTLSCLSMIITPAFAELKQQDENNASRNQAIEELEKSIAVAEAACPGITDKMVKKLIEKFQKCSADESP
The settings on record: MST4; 0.1 μM; 10 μM ATP; read-out: % Enzyme Activity (relative to DMSO controls).
Source text: as §1

In assay [20] the target is T20, panel of 371 human kinases (Homo sapiens, UniProt Q8IU85).
T20 construct: purchased Reaction Biology Corp
T20 sequence (Q8IU85 whole entry): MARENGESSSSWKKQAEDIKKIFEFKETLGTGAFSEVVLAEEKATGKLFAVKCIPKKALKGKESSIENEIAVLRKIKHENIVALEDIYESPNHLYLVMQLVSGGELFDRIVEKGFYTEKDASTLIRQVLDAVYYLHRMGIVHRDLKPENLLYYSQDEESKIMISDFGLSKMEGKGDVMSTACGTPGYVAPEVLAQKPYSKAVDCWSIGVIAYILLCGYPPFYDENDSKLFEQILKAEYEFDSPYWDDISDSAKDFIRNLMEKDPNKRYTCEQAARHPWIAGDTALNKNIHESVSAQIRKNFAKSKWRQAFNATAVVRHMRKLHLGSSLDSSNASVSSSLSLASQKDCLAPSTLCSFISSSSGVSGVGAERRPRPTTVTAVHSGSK
As to conditions: CAMK1d; 0.1 μM; 10 μM ATP; read-out: % Enzyme Activity (relative to DMSO controls).
Source text: as §1

The target in assay [21] is T21, panel of 371 human kinases (Homo sapiens, UniProt Q96S53).
T21 construct: purchased Reaction Biology Corp
As to conditions: TESK2; 0.1 μM; 10 μM ATP; read-out: % Enzyme Activity (relative to DMSO controls).
Source text: as §1

The target of assay [22] is T22, panel of 371 human kinases (Homo sapiens, UniProt P68400).
T22 construct: purchased Reaction Biology Corp
T22 sequence (P68400 whole entry): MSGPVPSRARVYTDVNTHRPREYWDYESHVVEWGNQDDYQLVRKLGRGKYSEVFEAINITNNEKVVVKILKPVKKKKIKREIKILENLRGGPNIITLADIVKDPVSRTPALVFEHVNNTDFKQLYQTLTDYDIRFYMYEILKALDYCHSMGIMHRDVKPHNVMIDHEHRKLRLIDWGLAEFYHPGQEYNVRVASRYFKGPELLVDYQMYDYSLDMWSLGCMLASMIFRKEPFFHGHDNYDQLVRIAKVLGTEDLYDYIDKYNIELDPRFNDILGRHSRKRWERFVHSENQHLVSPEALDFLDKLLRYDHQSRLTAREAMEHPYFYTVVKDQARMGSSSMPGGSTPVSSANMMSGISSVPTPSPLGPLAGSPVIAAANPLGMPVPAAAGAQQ
The settings on record: CK2a; 0.1 μM; 10 μM ATP; read-out: % Enzyme Activity (relative to DMSO controls).
Source text: as §1

Assay [23] concerns the target T23, panel of 371 human kinases (Homo sapiens, UniProt Q9UPE1).
T23 construct: purchased Reaction Biology Corp
The settings on record: MSSK1/STK23; 0.1 μM; 10 μM ATP; read-out: % Enzyme Activity (relative to DMSO controls).
Source text: as §1

Assay [24] addresses T24, panel of 371 human kinases (Homo sapiens, UniProt Q8IVT5).
T24 construct: purchased Reaction Biology Corp
As to conditions: KSR1; 0.1 μM; 10 μM ATP; read-out: % Enzyme Activity (relative to DMSO controls).
Source text: as §1

T7 sequence (Q9H2X6 whole entry): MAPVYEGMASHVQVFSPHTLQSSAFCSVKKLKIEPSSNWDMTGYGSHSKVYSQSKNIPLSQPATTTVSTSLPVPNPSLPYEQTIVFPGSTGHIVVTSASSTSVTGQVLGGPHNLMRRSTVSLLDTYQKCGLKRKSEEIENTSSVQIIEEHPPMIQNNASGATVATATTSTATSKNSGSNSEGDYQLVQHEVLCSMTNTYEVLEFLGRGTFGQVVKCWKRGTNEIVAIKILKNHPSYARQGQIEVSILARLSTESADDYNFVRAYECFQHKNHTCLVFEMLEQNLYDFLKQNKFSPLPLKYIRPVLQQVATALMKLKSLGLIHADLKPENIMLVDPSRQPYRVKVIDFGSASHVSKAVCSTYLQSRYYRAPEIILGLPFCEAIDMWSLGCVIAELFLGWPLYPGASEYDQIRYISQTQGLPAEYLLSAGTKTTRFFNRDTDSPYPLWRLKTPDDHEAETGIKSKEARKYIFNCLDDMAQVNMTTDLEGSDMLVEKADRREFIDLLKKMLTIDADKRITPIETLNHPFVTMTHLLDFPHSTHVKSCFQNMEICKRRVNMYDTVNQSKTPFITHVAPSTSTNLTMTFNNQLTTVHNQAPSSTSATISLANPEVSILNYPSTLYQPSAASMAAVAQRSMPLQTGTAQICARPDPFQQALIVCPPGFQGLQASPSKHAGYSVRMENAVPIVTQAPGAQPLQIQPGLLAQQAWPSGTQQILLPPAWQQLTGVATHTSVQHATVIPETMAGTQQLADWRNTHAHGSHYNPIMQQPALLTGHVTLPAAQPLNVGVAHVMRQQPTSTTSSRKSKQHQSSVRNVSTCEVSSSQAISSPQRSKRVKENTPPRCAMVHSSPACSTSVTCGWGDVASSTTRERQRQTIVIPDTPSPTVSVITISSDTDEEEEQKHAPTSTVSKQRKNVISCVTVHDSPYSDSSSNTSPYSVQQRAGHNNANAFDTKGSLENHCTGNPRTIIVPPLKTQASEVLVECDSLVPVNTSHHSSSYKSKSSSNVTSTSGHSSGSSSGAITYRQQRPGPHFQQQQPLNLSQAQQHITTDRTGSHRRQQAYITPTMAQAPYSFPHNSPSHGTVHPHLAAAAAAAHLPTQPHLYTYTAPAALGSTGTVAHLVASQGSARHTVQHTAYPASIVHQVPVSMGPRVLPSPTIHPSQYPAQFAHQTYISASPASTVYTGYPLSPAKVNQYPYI

On to `CN1CCN(Cc2ccc(-c3cnc4[nH]cc(-c5ccc6[nH]ccc6c5)c4c3)cc2)CC1` [Compound 1, 3-(1H-Indol-5-yl)-5-(4-((4-methylpiperazin-1-yl)methyl)phenyl)-1H-pyrrolo[2,3-b]pyridine, reference compound], for which the remaining activity at 0.1 µM in [1] is 105%; in assay [2], 93%; in assay [3], 86.8%; in [4], 102%; in [5], 88.3%; in [6] it was 96.2%. Besides, the remaining activity at 0.1 µM in assay [7] came to 110%; in assay [8], 82.8%; in [9], 100%; in assay [10] it was 106%; in [11], 86.7%; in assay [12], 100%. In addition, the remaining activity at 0.1 µM in assay [13] was 95.1%; in [14], 107%; in assay [15] it was 96.6%; in assay [16], 81.6%; in assay [17] it was 87.1%; in assay [18], 98.3%. Further, the remaining activity at 0.1 µM in [19] came to 73%; in assay [20] it was 101%; in [21], 112%; in [22], 100%; in assay [23] it was 112%; in [24] it was 98%.
With `OCCN1CCN(Cc2ccc(-c3cnc4[nH]cc(-c5cccc(Cl)c5)c4c3)cc2)CC1` [Compound 12k, 2-(4-(4-(3-(3-Chlorophenyl)-1H-pyrrolo[2,3-b]pyridin-5-yl)benzyl)piperazin-1-yl)ethan-1-ol], the remaining activity at 0.1 µM in assay [1] is 101%; in assay [2] it was 94.8%; in assay [3], 94.3%; in assay [4], 43.1%; in [5], 91.1%; in assay [6], 92%. Besides, the remaining activity at 0.1 µM in [7] worked out at 95.7%; in assay [8], 75.2%; in assay [9] it was 89%; in assay [10] it was 98.2%; in [11] it was 93.1%; in [12], 89.8%. Also, the remaining activity at 0.1 µM in assay [13] is 100%; in assay [14] it was 105%; in assay [15], 109%; in assay [16], 59.5%; in assay [17], 87.6%; in assay [18], 93%. The remaining activity at 0.1 µM worked out at 73.2% in assay [19]; 96.8% in assay [20]; 92.7% in assay [21]; 110% in assay [22]; 103% in [23]; 97.3% in [24].
